Data reported in patent US4321208A, “Preparation of directly iodinated steroid hormones and related compounds” (priority 1976, dated 1982).

Tests used:
anti-serum = details: Abraham and Odell; iodinated at positions 2 and 4; cited from earlier work
[1] = test system: breast cancer tumor tissue; details: injected; patients responding to endocrine treatment vs those who do not respond; cited from earlier work
[2] = test system: antiserum against estradiol-17 beta; experiment: Radioimmunoassay: competition of nonradioactive estradiol with ^125 I estradiol-17 beta for antiserum; type: binding; details: antiserum 1:10,000 or 1:20,000; ^125 I estradiol-17 beta 70 Ci/mM
Method: The procedure of this assay are identical as described by the instant inventor and authors C. […] After incubation, the unbound hormone was removed by charcoal adsorption.

C[C@]12CC[C@@H]3c4cc(I)c(O)c(I)c4CC[C@H]3[C@@H]1CC[C@@H]2O
binding to anti-serum (anti-serum): unable to bind the anti-serum

C[C@]12CC[C@@H]3c4ccc(O)cc4CC[C@H]3[C@@H]1CC[C@@H]2O [tritiated estradiol]
concentration of tritiated hormone in tumor tissue [1]: usually concentrate more tritiated hormones in their tumor tissue

C[C@]12CC[C@@H]3c4ccc(O)cc4CC[C@H]3[C@@H]1CC[C@@H]2O [unlabelled estradiol, estradiol]
effect of unlabelled estradiol on percent bound ^125 I estradiol [2]: the percent bound ^125 I estradiol decreases
